Experiments:
RAW 264.7 cells = test: Inhibition of RANKL-induced osteoclast differentiation (TRAP staining); type: cell-based; conditions: 5 μM, 5 days
H1N1 virus = type: cell-based; conditions: MDCK culture infected with H1N1 virus, n=6
[1] = tested on: STZ-induced diabetic rats; test: Change of insulin and fasting blood glucose after administration, STZ-induced diabetic rats; type: in vivo; conditions: 4 mg/kg
Protocol: Nateglinide, repaglinide or the placebo is administered on day 1 before one hour of the breakfast, and the KMUP-1/KMUP-1-Nateglinide or KMUP-1-Repaglinide are orally administered at 1, 2, 3, 4, 5 and 6 hrs respectively. The amount of the serum glucose (mg/dl), the amount of the serum insulin (mg/dl), the body weight (g) and the change of the body weight are measured.

C57BL/6J mice = test: The lipid-lowering effect in C57BL/6J mice (high-fat diet); type: in vivo; conditions: 2.5 mg/kg orally, HFD, after 21 days
Protocol: 8-week C57BL/6J mice are divided into standard diet (STD) group and the high-fat diet (HFD) group. In the HFD group, the KMUP-1 HCl salt (1, 2.5 and 5 mg/kg), the simvastatin (5 mg/kg), the KMUP-1-Nicotinic acid complex (1 and 5 mg/kg), the KMUP-1-Simvastatinic acid complex (1 and 5 mg/kg), KMUP-1-Gemfibrozil complex (2.5 mg/kg), KMUP-1-Fibric acid complex (2.5 mg/kg), KMUP-1-γ-polyglutamic acid complex (2.5 mg/kg) and KMUP-1-Citric acid complex (2.5 mg/kg) are administered orally. After 21 days, the amounts (mg/dl) of the triglyceride (TG), the total cholesterol (tot.-C), the high density lipoprotein cholesterol (HDL-C), the low density lipoprotein cholesterol (LDL-C) and the serum glucose of six mice for each group are measured as shown in Tables 2 and 3.

Compound | The change of the fasting blood glucose after administration ([1]; 1 hr) | The change of the insulin after administration ([1]; 1 hr) | The change of the fasting blood glucose after administration ([1]; 2 hr) | The change of the insulin after administration ([1]; 2 hr) | The change of the insulin after administration ([1]; 3 hr) | The change of the insulin after administration ([1]; 4 hr) | The change of the fasting blood glucose after administration ([1]; 6 hr) | The change of the insulin after administration ([1]; 6 hr) | also measured
CC(C)c1c(C(=O)Nc2ccccc2)c(-c2ccccc2)c(-c2ccc(F)cc2)n1CC[C@@H](O)C[C@@H](O)CC(=O)O.Cn1c(=O)c2c(ncn2CCN2CCN(c3ccccc3Cl)CC2)n(C)c1=O [KMUP-1-Atorvastatinic acid, KMUP-1-Atorvastatinic acid complex] | – | – | – | – | – | – | – | – | TRAP-Positive Cells (RAW 264.7 cells; RANKL 10 μg/ml, n=5): 78 ± 3
CC[C@H](C)C(=O)O[C@H]1C[C@H](O)C=C2C=C[C@H](C)[C@H](CC[C@@H](O)C[C@@H](O)CC(=O)O)[C@H]21.Cn1c(=O)c2c(ncn2CCN2CCN(c3ccccc3Cl)CC2)n(C)c1=O [KMUP-1-Pravastatinic acid, KMUP-1-Pravastatinic acid complex] | – | – | – | – | – | – | – | – | IC50 (H1N1 virus): 2.1 µg/mL
CC(C)[C@H]1CC[C@H](C(=O)N[C@H](Cc2ccccc2)C(=O)O)CC1.Cn1c(=O)c2c(ncn2CCN2CCN(c3ccccc3Cl)CC2)n(C)c1=O [KMUP-1-Nat, KMUP-1-Nateglinide Complex] | 4.67 ± 0.7 mg/dL | 38 ± 2.7 U/mL | 0.8 ± 0.4 mg/dL | 51.3 ± 4.3 U/mL | 31.8 ± 3.7 U/mL | 21.8 ± 5.3 U/mL | -0.2 ± 0.3 mg/dL | 3.4 ± 0.6 U/mL | –
Cc1ccc(C)c(OCCCC(C)(C)C(=O)O)c1.Cn1c(=O)c2c(ncn2CCN2CCN(c3ccccc3Cl)CC2)n(C)c1=O [KMUP-1-Gemfibrozil, KMUP-1-gemfibrozil complex] | – | – | – | – | – | – | – | – | HDL-C (C57BL/6J mice): 98.7 ± 1.8 mg/dL; LDL-C (C57BL/6J mice): 18.2 ± 1.8 mg/dL; TG (C57BL/6J mice): 79.2 ± 4.6 mg/dL; tot.-C (C57BL/6J mice): 130.7 ± 1.7 mg/dL
Cn1c(=O)c2c(ncn2CCN2CCN(c3ccccc3Cl)CC2)n(C)c1=O [KMUP-1, 7-[2-[4-(2-chlorobenzene)piperazinyl]ethyl]-1,3-dimethylxanthine] | – | – | – | – | – | – | – | – | TRAP-positive cell count caused by RANKL (in words) (RAW 264.7 cells): suppressed the TRAP-positive cell count
CC(C)[C@H]1CC[C@H](C(=O)N[C@H](Cc2ccccc2)C(=O)O)CC1 [Nat, Nateglinide, reference compound] | 4.7 ± 0.6 mg/dL | 42.5 ± 4.2 U/mL | 0.3 ± 0.2 mg/dL | 49.3 ± 3.4 U/mL | 24.4 ± 4.6 U/mL | 17.8 ± 2.8 U/mL | -0.2 ± 0.3 mg/dL | 4.4 ± 0.6 U/mL | –
CCOc1cc(CC(=O)N[C@@H](CC(C)C)c2ccccc2N2CCCCC2)ccc1C(=O)O [Rep, Repaglinide, reference compound] | 3.2 ± 0.8 mg/dL | 47.5 ± 3.7 U/mL | 0.6 ± 0.1 mg/dL | 49.3 ± 3.4 U/mL | 24.4 ± 4.6 U/mL | 19.8 ± 3.6 U/mL | -0.1 ± 0.4 mg/dL | 4.8 ± 0.4 U/mL | –
CC(C)(Oc1ccc(C(=O)c2ccc(Cl)cc2)cc1)C(=O)O.Cn1c(=O)c2c(ncn2CCN2CCN(c3ccccc3Cl)CC2)n(C)c1=O [KMUP-1-Fibric acid, KMUP-1-fibric acid complex] | – | – | – | – | – | – | – | – | HDL-C (C57BL/6J mice): 98.4 ± 1.3 mg/dL; LDL-C (C57BL/6J mice): 18.4 ± 2.2 mg/dL; TG (C57BL/6J mice): 80.2 ± 3.2 mg/dL; tot.-C (C57BL/6J mice): 132.7 ± 1.3 mg/dL
KMUP-1-Repaglinide Complex | 5.7 ± 0.8 mg/dL | 39.5 ± 3.8 U/mL | 0.5 ± 0.2 mg/dL | 47.3 ± 2.2 U/mL | 27.4 ± 2.8 U/mL | 14.8 ± 3.7 U/mL | -0.3 ± 0.1 mg/dL | 2.8 ± 0.5 U/mL | –

Source: patent US8470805B2, “Processes for preparing piperazinium salts of KMUP and use thereof” (Kaohsiung Medical University, priority 2009, dated 2013)
